Laboratory results as given in patent US9901571B2, “Tetrahydropyrazolopyridine derivatives as ghrelin receptor agonists” (RaQualia Pharma Inc., priority 2014, dated 2018).
pEC50: −log10 of the molar value.

Columns and labels:
[1] = Half-life in human liver microsomes (HLM), HLM CLint; assay type: in vitro ADME; conditions: for CLint scaled at 1 microM: human, human liver microsomes (XTreme 200), 1 microM test compound, 0.61 mg protein/mL HLM, pH 7.4, 37° C., read-out: HLM CLint (clearance in human liver microsome); for Ratio of HLM CLint over comparison 1: ratio between comparison compound 1 and the example
Method: Half-Life in Human Liver Microsomes (HLM)
Test compounds (1 microM) are incubated with 1 mM MgCl2 and 0.61 mg protein/mL HLM (XTreme 200) in 100 mM phosphate buffer (pH 7.4) at 37° C. on the 96-deep well plate. An aliquot of samples is collected at […], where 0 […] the time when NADPH is added into the reaction mixture. Collected aliquots are extracted with acetonitrile solution containing an internal standard. The precipitated protein is spun down in centrifuge (2000 rpm, […]). The compound concentration in supernatant is measured by LC/MS/MS system.
The half-life value is obtained by plotting the natural logarithm of the peak area ratio of compound/internal standard versus time. The slope of the line of the best fit through the points yields the elimination rate constant (kel). This is converted to a half-life value using a following equation: Half-life=1n2/kel.

human ghrelin receptor = molecular target: T1, human ghrelin receptor (Homo sapiens, UniProt Q92847); assay: Ghrelin receptor agonistic activity induced Ca2+ influx in HEK293 cells stably expressing human ghrelin receptor; assay type: cell-based; conditions: 11-point dose-response
T1 construct: expressed in transfected cells; host or cells: HEK293
Method: Measurement of the ghrelin receptor agonistic activity induced Ca^2+ influx in HEK293 cells stably expressing human ghrelin receptor
HEK293 cells stably expressing human ghrelin receptor are maintained in Dulbecco's modified Eagle medium (high glucose) supplemented with 10% fetal bovine serum, 100 units/mL penicillin, 100 microg/mL streptomycin and 500 microg/mL G418 at 37° C. in a humidified incubator with 5% CO2 and grown to 60-80% confluence. The day before the assay, the cells are seeded on poly-D-lysine coated 384-well plates (BD FALCON) at a density of 10,000 cells per well and incubated overnight in incubator.
On the day of the assay, the cells are washed at three times with assay buffer (Hanks' balanced salt solution with 20 mM HEPES, pH7.4), and are incubated for 1 hour at room temperature to load 0.5 microM Fluo-4 AM reagent (Invitrogen).
After removing Fluo-4, and washing with assay buffer, the cells are added with various concentrations of the compounds. The changes in intracellular calcium concentration are monitored with the fluorescence imaging plate reader, FDSS6000 (Hamamatsu Photonics).
The EC50 values for compounds of the present invention are determined from 11-point dose-response studies. Curves are generated using the average of duplicate wells for each data point. Finally, the EC50 values are calculated using the best-fit dose curve determined by XLfit (ID Business Solutions Ltd).

T1 sequence (Q92847 whole entry): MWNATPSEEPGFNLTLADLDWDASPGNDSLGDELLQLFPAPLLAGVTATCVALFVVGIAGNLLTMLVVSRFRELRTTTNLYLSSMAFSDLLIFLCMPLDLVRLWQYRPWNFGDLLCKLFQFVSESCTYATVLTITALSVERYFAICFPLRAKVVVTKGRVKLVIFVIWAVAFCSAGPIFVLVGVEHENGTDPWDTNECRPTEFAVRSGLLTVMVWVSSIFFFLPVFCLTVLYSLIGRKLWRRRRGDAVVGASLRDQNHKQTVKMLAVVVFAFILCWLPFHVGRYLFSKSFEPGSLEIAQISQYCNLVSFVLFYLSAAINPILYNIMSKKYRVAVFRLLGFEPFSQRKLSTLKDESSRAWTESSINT

Compound	CLint scaled at 1 microM [1]	Ratio of HLM CLint over comparison 1 [1]	pEC50 (human ghrelin receptor)
CN1N=C2CCN(C(=O)[C@@H](CCCc3cccc(C(F)(F)F)n3)NC(=O)C(C)(C)N)C[C@@]2(Cc2ccccc2)C1=O [Example 10, 2-amino-N—((R)-1-((R)-3a-benzyl-2-methyl-3-oxo-3a,4,6,7-tetrahydro-2H-pyrazolo[4,3-c]pyridin-5(3H)-yl)-1-oxo-5-(6-(trifluoromethyl)pyridin-2-yl)pentan-2-yl)-2-methylpropanamide]	44.2 mL/min/kg	2.9	> 7.70
CN1N=C2CCN(C(=O)[C@@H](CCCc3ccccn3)NC(=O)C(C)(C)N)C[C@@]2(Cc2ccccc2)C1=O [Example 9, 2-amino-N—((R)-1-((R)-3a-benzyl-2-methyl-3-oxo-3a,4,6,7-tetrahydro-2H-pyrazolo[4,3-c]pyridin-5(3H)-yl)-1-oxo-5-(pyridin-2-yl)pentan-2-yl)-2-methylpropanamide]	19.7 mL/min/kg	6.6	> 7.70
CN1N=C2CCN(C(=O)[C@@H](CCc3ccc(CO)cc3Cl)NC(=O)C(C)(C)N)C[C@@]2(Cc2ccccc2)C1=O [Example 3, 2-amino-N—((R)-1-((R)-3a-benzyl-2-methyl-3-oxo-3a,4,6,7-tetrahydro-2H-pyrazolo[4,3-c]pyridin-5(3H)-yl)-4-(2-chloro-4-(hydroxymethyl)phenyl)-1-oxobutan-2-yl)-2-methylpropanamide]	43.5 mL/min/kg	3.0	> 7.70
CN1N=C2CCN(C(=O)[C@@H](CCCc3cccc(C(F)F)n3)NC(=O)C(C)(C)N)C[C@@]2(Cc2ccccc2)C1=O [Example 13, 2-amino-N—((R)-1-((R)-3a-benzyl-2-methyl-3-oxo-3a,4,6,7-tetrahydro-2H-pyrazolo[4,3-c]pyridin-5(3H)-yl)-5-(6-(difluoromethyl)pyridin-2-yl)-1-oxopentan-2-yl)-2-methylpropanamide]	36 mL/min/kg	3.6	> 7.70
CN1N=C2CCN(C(=O)[C@@H](CCCc3cccc(CO)c3)NC(=O)C(C)(C)N)C[C@@]2(Cc2ccccc2)C1=O [Example 7, 2-amino-N—((R)-1-((R)-3a-benzyl-2-methyl-3-oxo-3a,4,6,7-tetrahydro-2H-pyrazolo[4,3-c]pyridin-5(3H)-yl)-5-(3-(hydroxymethyl)phenyl)-1-oxopentan-2-yl)-2-methylpropanamide]	53.5 mL/min/kg	2.4	> 7.70
CN1N=C2CCN(C(=O)[C@@H](CCc3ccc(CO)cc3F)NC(=O)C(C)(C)N)C[C@@]2(Cc2ccccc2)C1=O [Example 4, 2-amino-N—((R)-1-((R)-3a-benzyl-2-methyl-3-oxo-3a,4,6,7-tetrahydro-2H-pyrazolo[4,3-c]pyridin-5(3H)-yl)-4-(2-fluoro-4-(hydroxymethyl)phenyl)-1-oxobutan-2-yl)-2-methylpropanamide]	21.7 mL/min/kg	6.0	> 7.70
CN1N=C2CCN(C(=O)[C@@H](CCc3ccccc3)NC(=O)C(C)(C)N)C[C@@]2(Cc2ccccc2)C1=O [Example 2, 2-amino-N—((R)-1-((R)-3a-benzyl-2-methyl-3-oxo-3a,4,6,7-tetrahydro-2H-pyrazolo[4,3-c]pyridin-5(3H)-yl)-1-oxo-4-phenylbutan-2-yl)-2-methylpropanamide]	54.5 mL/min/kg	2.4	> 7.70

Continued, values first:

CLint scaled at 1 microM [1]	Ratio of HLM CLint over comparison 1 [1]	pEC50 (human ghrelin receptor)	Compound
51.5 mL/min/kg	2.5	> 7.70	CC(C)(N)C(=O)N[C@H](CCc1ccccc1)C(=O)N1CCC2=NN(CC(F)(F)F)C(=O)[C@]2(Cc2ccccn2)C1 [Example 14, 2-amino-2-methyl-N—((R)-1-oxo-1-((R)-3-oxo-3a-(pyridin-2-ylmethyl)-2-(2,2,2-trifluoroethyl)-3a,4,6,7-tetrahydro-2H-pyrazolo[4,3-c]pyridin-5(3H)-yl)-4-phenylbutan-2-yl) propanamide]
56.7 mL/min/kg	2.3	> 7.70	CC(C)(N)C(=O)N[C@H](CCc1ccc(F)cc1CO)C(=O)N1CCC2=NN(CC(F)(F)F)C(=O)[C@]2(Cc2ccccn2)C1 [Example 17, 2-amino-N—((R)-4-(4-fluoro-2-(hydroxymethyl)phenyl)-1-oxo-1-((R)-3-oxo-3a-(pyridin-2-ylmethyl)-2-(2,2,2-trifluoroethyl)-3a,4,6,7-tetrahydro-2H-pyrazolo[4,3-c]pyridin-5(3H)-yl)butan-2-yl)-2-methylpropanamide]
48.5 mL/min/kg	2.7	> 7.70	CN1N=C2CCN(C(=O)[C@@H](CCCc3ccccc3CO)NC(=O)C(C)(C)N)C[C@@]2(Cc2ccccc2)C1=O [Example 8, 2-amino-N—((R)-1-((R)-3a-benzyl-2-methyl-3-oxo-3a,4,6,7-tetrahydro-2H-pyrazolo[4,3-c]pyridin-5(3H)-yl)-5-(2-(hydroxymethyl)phenyl)-1-oxopentan-2-yl)-2-methylpropanamide]
44.6 mL/min/kg	2.9	> 7.70	CN1N=C2CCN(C(=O)[C@@H](CCc3cc(CO)ccc3F)NC(=O)C(C)(C)N)C[C@@]2(Cc2ccccc2)C1=O [Example 5, 2-amino-N—((R)-1-((R)-3a-benzyl-2-methyl-3-oxo-3a,4,6,7-tetrahydro-2H-pyrazolo[4,3-c]pyridin-5(3H)-yl)-4-(2-fluoro-5-(hydroxymethyl)phenyl)-1-oxobutan-2-yl)-2-methylpropanamide]
